Assay results published in patent US20240050513A1, “COMPOSITION FOR PREVENTING, AMELIORATING, OR TREATING DISEASE CAUSED BY PROTEIN NITRATION […] WITH TERMINAL TYROSINE AS EFFECTIVE COMPONENT” (INDUSTRY-ACADEMIC COOPERATION FOUNDATION GYEONGSANG …, priority 2021, published 2024).
Like-named read-outs stand apart in the source and are kept apart here.

What was measured:
[1] = test system: 3xTG-AD mice; assay: Cognitive function (ORT) and hippocampal ROS/RNS in Alzheimer's disease model; format: in vivo, mouse; conditions: 1xYQ diet
Method: To analyze the long-term memory capacity of animals following the peptide diet of the present invention, both the object recognition test (ORT) and object location recognition test (OLT) were conducted (FIG. 1). The tests consisted of three phases: habituation, familiarization, and test. During the habituation phase, the animals were acclimated to the testing apparatus for 10 minutes per day over two days. On the third day at the familiarization phase, the animals were allowed to explore two identical objects for 10 minutes. Subsequently, on the fourth day at the test phase, one of the objects was replaced with a novel object, and the animals were allowed to explore for 10 minutes, with result recorded during the initial 5 minutes was used as test data. The object recognition test (ORT) index was calculated using the following formula.
Discrimination index=(N−F)/(N+F) • N: Time spent for exploring new object • F: Time spent for exploring familiar object
The cognitive function of a 2-month-old mouse 3xTG-AD, which is a mouse model of modified Alzheimer's disease gene, and a 2-month-old normal C57BL/6 mouse was examined. After the examination, both were divided into two groups, and they were fed with either a normal diet (ND) or a diet supplemented with tyrosine-containing peptide (1xYQ). […]

[2] = test system: high-fat diet C57BL/6 mice
Method: Three-week-old male C57BL/6 mice were purchased from Koatech and housed in the animal facility under controlled conditions of temperature (22±2° C.), humidity (50±5%), and a 12-hour light-dark cycle. Two mice were housed per a cage. […] The mice were maintained on their respective diets for a duration of 17 weeks.
With an interval of one week, the body weight and food intake of each animal were measured. Additionally, at 1, 5, or 8 weeks after the start of the experiment, fasting blood glucose level was measured using an Accu-Check glucose meter.
At 15 weeks after the start of the test, a glucose tolerance test (GTT) was performed, and at 16 weeks, an insulin tolerance test (ITT) was carried out. For the
GTT, after a 12-hour fasting period, a glucose solution of 2 g/kg was administered through intraperitoneal injection, and blood samples were collected from the vein at 0, 20, 60, 90, and 120 minutes to measure blood glucose level. For the ITT, after a 6-hour fasting period, insulin at a dose of 0.75 U/kg was administered through intraperitoneal injection, and blood samples were collected from the vein at 0, 15, 30, 60, and 120 minutes to measure blood glucose level.
The urine volume (ml) was measured by collecting urine from the metabolic cages over a 16-hour period, and the fat mass was measured for each mouse using the EchoMRITM device and expressed as a percentage (%) of body weight.
The insulin concentration was measured using an ELISA kit (Crystal Chem, Ultra-Sensitive Mouse Insulin ELISA Kit), and the alanine aminotransferase (ALT) concentration was measured using an assay kit (IVD Lab Co., ChemiLab GPT (ALT) assay kit). Additionally, the concentration of reactive oxygen species/reactive nitrogen species (ROS/RNS) was measured by using an assay kit (Cell Biolabs, Inc., OxiSelect™ In Vitro ROS/RNS Assay Kit).
After anesthesia, liver tissues were dissected and rapidly frozen in liquid nitrogen. Some tissues were fixed in 10% formalin, and 5 μm-thick tissue slides were prepared from paraffin blocks. The tissues were then stained with H&E (hematoxylin and eosin) and observed under a microscope (Olympus, CKX41) for imaging.
A decrease in insulin receptor in muscles in metabolic disorders reduces the sensitivity to insulin signal, thus limiting the ability to utilize glucose in the muscles to cause sarcopenia. The liver tissue was homogenized in RIPA buffer, and protein quantification was performed using the BCA method. Western blot analysis was then conducted using an anti-insulin receptor-beta (IRβ) antibody.
It is known that a decrease in renal function leads to an increase in the concentration of albumin and a decrease in creatinine in urine. Therefore, the albumin and creatinine levels in urine were measured using mouse albumin ELISA kit (Abcam) and creatinine assay kit (Abcam), respectively, in each test animal. The albumin/creatinine ratio was then calculated. Additionally, 10 μL of blood plasma or 40 mg of homogenized liver tissue were subjected to centrifugation at 10,000 g for 10 minutes, and the supernatant was separated to measure the triglycerides (TG) level in plasma or liver by using a triglyceride measurement kit (Cayman).

[3] = test system: superoxide dismutase (SOD); assay: Hippocampal SOD activity in ischemic stroke model; format: in vivo, Mongolian gerbils; conditions: hippocampus, 200 mg/kg i.p. once, twenty-four hours after reperfusion
Method: (§1) Three-month-old male Mongolian gerbils were induced with general anesthesia using 3% isoflurane and the anesthesia was maintained with 2.5% isoflurane gas. After sterilizing the neck area, a midline incision was made to expose both common carotid arteries, and microvessel clip was used to block the blood flow for 5 minutes, inducing cerebral ischemia to simulate a stroke. During the application of the microvessel clip, the body temperature was maintained at 37.0±0.5° C., and animals undergoing sham operation were used as the control group.
(§2) After inducing ischemia, the animal was, under reperfusion, intraperitoneally administered once with YQ peptide at a dose of 200 mg/kg. Two hours or twenty-four hours after the reperfusion, the animal was anesthetized with avertin. Then, the skull was quickly opened, and the brain was rapidly removed. The hippocampal tissue was collected and rapidly frozen in liquid nitrogen, then stored in a deep freezer. Subsequently, the activities of superoxide dismutase (SOD) and catalase (CAT) were measured by using SOD colorimetric activity kit and CAT colorimetric activity kit, respectively.

[4] = test system: glutamatergic neurons of 3xTG-vGluT2-Cre::tdTomato mice; assay: sEPSC of glutamatergic neurons in mPFC of fluorescent labeled Alzheimer's disease model; format: in vivo, mouse; conditions: 1xYQ diet from 2 months, measured at 6 to 8 months
Method: At two months of age, 3xTG-vGluT2-Cre::tdTomato mice were fed with diet supplemented with tyrosine-containing peptide (1xYQ). At 6 to 8 months of age, the spontaneous excitatory postsynaptic current (sEPSC) was measured to evaluate the activity of glutamatergic neurons. For recording membrane currents, a 200 μm-thick brain cross-section was placed in a recording chamber filled with artificial cerebrospinal fluid at a rate of 1.5 to 2 ml/min, and, under a holding potential of −70 mV, whole-cell voltage clamp recordings were obtained from visually identified glutamatergic neurons in the medial prefrontal cortex (mPFC). Glutamatergic currents were isolated by the addition of picrotoxin (100 μM). All recordings were performed at 30±2° C., and, as the pipette solution, a solution containing 30 mM KCl, 5 mM CaCl2, 10 mM EGTA, 10 mM HEPES, 2 mM MgATP, 0.5 mM Na2GTP, and 5 mM phosphocreatine was used.

[5] = test system: catalase (CAT); assay: Hippocampal catalase activity in ischemic stroke model; format: in vivo, Mongolian gerbils; conditions: hippocampus, 200 mg/kg i.p. once, twenty-four hours after reperfusion
Method: as §1, §2

**Q.** tyrosine-glutamine [YQ] was tested. Which “cognitive function (ORT)” value ([1]; dementia animal model 3xTG-AD, 2 to 8 months of age) did it give?
**A.** slight improvement

**Q.** And the “ROS/RNS level in the hippocampal tissues” value ([1]; dementia animal model)?
**A.** decrease

**Q.** And the “fasting blood glucose level” value ([2]; HFD+1xYQ vs HFD, 1, 5 or 8 weeks)?
**A.** decrease in blood glucose level

**Q.** What about the body weight ([2]; HFD+3xYQ vs HFD) of the same substance?
**A.** lower body weight

**Q.** What about the fat mass ([2]; HFD+3xYQ vs HFD) of the same substance?
**A.** decrease

**Q.** And the “fasting blood glucose level” value ([2]; HFD+3xYQ vs HFD, 1, 5 or 8 weeks)?
**A.** decrease in blood glucose level

**Q.** And the “blood glucose level, glucose tolerance test (GTT)” value ([2]; HFD+3xYQ vs HFD, 15 weeks)?
**A.** decrease in blood glucose level

**Q.** What about the urine volume ([2]; HFD+3xYQ vs HFD, 16-hour collection) of the same substance?
**A.** decrease

**Q.** And the “blood glucose level, insulin tolerance test (ITT)” value ([2]; HFD+3xYQ vs HFD, 16 weeks)?
**A.** decrease in blood glucose level

**Q.** What about the “expression level of IRβ” value ([2]; liver tissue, Western blot, HFD+3xYQ vs HFD) of the same substance?
**A.** increase

**Q.** And the SOD activity [3]?
**A.** activity increases

**Q.** And the “glutamatergic neuronal activity (sEPSC)” value [4]?
**A.** increased

**Q.** What about the CAT activity [5] of the same substance?
**A.** activity increases
